We go through 1 compound from BindingDB's records for doi:10.1124/jpet.302.2.687 (University of Kentucky, 2002).

In this assay the target is Nicotinic acetylcholine receptor (Rattus leucopus, UniProt Q62594).

Counter-ions that a name gives are not always drawn.

Nicotinic acetylcholine receptor, sequence (Q62594 whole entry): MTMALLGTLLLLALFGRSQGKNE

Compound `CC(NC(C)(C)C)C(=O)c1cccc(Cl)c1` (stereo unspecified) [BUPROPION HYDROCHLORIDE] had a Ki greater than 10 µM.

Broadly, the Ki is the dissociation constant of the complex between target and ligand, obtained from inhibition or displacement. High values mean weaker binding, low ones tighter binding.
